Patent US10064826B2, “Direct compression and dry granulation processes for preparing carglumic acid tablets having less impurities than those produced by wet granulation process” (Navinta, LLC, priority 2013, dated 2018)

Test: Stability under stress conditions (alkaline, acidic, light, oxidizing medium)
Format: physicochemical
Details: light or hydrogen peroxide
Method: Both batches of carglumic acid tablets from Examples 1 and 2 are also evaluated for stability under stress conditions.
Principal degradation products are hydantoin-5-propionic acid (“5-HPA”) and diaza-1,3-dione-2,4-carboxy-7-cycloheptane. Among them, 5-HPA is toxic and thus it must be controlled below 0.1%. L-Pyroglutamic acid is another common impurity in the carglumic acid tablet.

Compound: NC(=O)N[C@@H](CCC(=O)O)C(=O)O [Carglumic acid, (2S)-2-(carbamoylamino)pentanedioic acid]
- Degradation when exposed to light or an oxidizing medium: slowly degraded
